{"source": "patent EP0965346A2", "about": "“Use of acetylated mannan derivatives for treating chronic respiratory diseases” (CARRINGTON LABORATORIES, INC., priority 1991, dated 1993)", "key": {"HIV": {"test_system": "HIV", "test": "Phase II double-blind study of acemannan alone and with AZT", "type": "in vivo", "conditions": "ARC patients, 24 weeks", "protocol": "Forty-seven HIV+ patients (23 asymptomatic patients, 24 ARC patients) participated in a double-blind randomized phase II study of acemannan. The protocol was approved by the relevant ethical committees of the Hospital St. Pierre in Brussels, Belgium. In order to evaluate safety and tolerance, with or without concomitant AZT therapy, acemannan was administered during 24 weeks at a daily dose of 1000 mg (2 capsules of 125 mg, 4 times daily). The 23 asymptomatic patients were blindly allocated to receive either acemannan (11 patients, group 1) or placebo (12 patients, group 2). Of the 24 ARC patients who received 1000 mg AZT daily during the study, 12 patients (group 3) also received acemannan 1000 mg (2 capsules of 125 mg, 4 times daily) and 12 patients (group 4) also received placebo."}, "[1]": {"test_system": "HTLV-IIIB strain of HIV-1", "test": "Viability (MTT) of HIV-1-infected MT-2 cells, AZT-acemannan checkerboard", "type": "cell-based", "protocol": "Virus Strains - The HTLV-IIIB strain of HIV-1 was obtained from Dr. R. Gallo, NIH, Bethesda, Maryland. Viral stocks were prepared by propagating the virus in H9 lymphoid cells. A stock preparation of the virus was stored at -80°C. The 50% tissue culture infective dose (TCID50)/ml of cell-free virus pool stock was determined by end-point titration using MT-2 cells. Multiplicity of infection (MOI) was determined by the method of Reed and Muench.\nCell Lines - MT-2 cells were propagated in RPMI-1640 supplemented with 2 mM L-glutamine and 15% (v/v) fetal bovine serum. MT-2 cells naturally express CD4 on their surface and are thus good target cells for HIV-1 infection. In addition, they rapidly undergo cytolysis at low levels of virus replication.\nPrimary testing of antiviral activity - MT-2 cells were first treated with polybrene (2 mg/ml) for 30 min and then infected with HIV at a MOI of 0.03. After virus absorption, the cells were pelleted and resuspended in complete medium. […] Parallel assays were performed in triplicate, and drug cytotoxicity was measured at parallel concentrations in duplicate. […] On day 7 post-infection, cell viability was measured by the addition of MTT (450 µg/ml) to the test plates. […] Plates were read at a wavelength of 570 nm on a Vmax plate reader (Molecular Devices, Inc.). The percent change in cell viability was calculated using the following formula: % change in cell viability =((TI-TO)-(OI-TO))/((OO-TO)-(OI-TO))x 100 [formula] where: • TI is the optical density (OD) in treated, infected cells, • TO is the OD in treated, uninfected cells, • OI is the OD in untreated, infected cells, and • OO is the OD in untreated, uninfected cells.\nAntiviral activity of acemannan-AZT combinations - Antiviral activity of acemannan in combination with AZT at various concentrations was evaluated using the microtiter infection assay described above. […] Combinations were evaluated in duplicate, and treated uninfected controls were used to determine drug cytotoxicity. Each compound was also evaluated alone at non-cytotoxic concentrations. […]"}}}
{"smiles": "Cc1cn([C@H]2C[C@H](N=[N+]=[N-])[C@@H](CO)O2)c(=O)[nH]c1=O", "note": "[AZT, Zidovudine]", "values": [{"measurement": "patients who developed AIDS", "setting": "HIV; 12 per group", "value": 2, "unit": "patients"}, {"measurement": "mean Karnofsky score at exit", "setting": "HIV; AZT 1000 mg daily, acemannan 1000 mg daily, entry 84 (combination), 81 (AZT alone)", "value": 83}, {"measurement": "mean CD4 at exit", "setting": "HIV; entry 263/mm3 (combination), 145/mm3 (AZT alone)", "value": "252 /mm3"}, {"measurement": "protection", "setting": "[1]; 0.01 µg/ml AZT alone", "value": "neither of which was protective on its own"}, {"measurement": "protection", "setting": "[1]; 0.32 µg/ml AZT alone", "value": 65, "unit": "%"}, {"measurement": "maximum protection", "setting": "[1]; AZT alone, 0.03 to 0.32 µg/ml, MOI 0.03", "value": "60-67%"}]}
